Measurements taken from PubChem BioAssay AID256 (DTP/NCI, 2004).
“And” between values parts separate entries of the source, which are not always exact repeats. Equal values may be shown once. Toxic doses and inconclusive results are not listed. How the source made its calls: active means survival T/C of 150% or more; inactive means T/C below 125% in these data.

System: CD2F1 mice, L1210 leukemia ip, survival T/C
Assay: NCI In Vivo Anticancer Drug Screen. Data for tumor model L1210 Leukemia (intraperitoneal) in CD2F1 (CDF1) mice
Settings: higher = longer survival
Procedure, shortened: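 Transplantable tumor in mice; compound-treated vs vehicle-treated groups. Read-out = treated/control ratio of the measured endpoint.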

[1] = endpoint: mean survival time, dose: 100.0 mg/kg/injection, schedule: Q04DX003 (ip), vehicle: saline with Tween-80
[2] = endpoint: mean survival time, dose: 200.0 mg/kg/injection, schedule: Q04DX003 (ip), vehicle: saline with Tween-80
[3] = endpoint: mean survival time, dose: 400.0 mg/kg/injection, schedule: Q04DX003 (ip), vehicle: saline with Tween-80
[4] = endpoint: mean survival time, dose: 100.0 mg/kg/injection, schedule: Q01DX009 (ip), vehicle: saline with Tween-80
[5] = endpoint: mean survival time, dose: 200.0 mg/kg/injection, schedule: Q01DX009 (ip), vehicle: saline with Tween-80
[6] = endpoint: mean survival time, dose: 400.0 mg/kg/injection, schedule: Q01DX009 (ip), vehicle: saline with Tween-80
[7] = endpoint: mean survival time, dose: 100.0 mg/kg/injection, schedule: Q01DX001 (ip), vehicle: saline
[8] = endpoint: mean survival time, dose: 100.0 mg/kg/injection, schedule: Q01DX001 (ip), vehicle: saline with Tween-80
[9] = endpoint: mean survival time, dose: 200.0 mg/kg/injection, schedule: Q01DX001 (ip), vehicle: saline with Tween-80
[10] = endpoint: mean survival time, dose: 400.0 mg/kg/injection, schedule: Q01DX001 (ip), vehicle: saline with Tween-80
[11] = endpoint: mean survival time, dose: 100.0 mg/kg/injection, schedule: Q01DX001 (ip), vehicle: Klucel (hydroxypropylcellulose) (HPC)
[12] = endpoint: mean survival time, dose: 200.0 mg/kg/injection, schedule: Q01DX001 (ip), vehicle: Klucel (hydroxypropylcellulose) (HPC)
[13] = endpoint: mean survival time, dose: 400.0 mg/kg/injection, schedule: Q01DX001 (ip), vehicle: Klucel (hydroxypropylcellulose) (HPC)

Measured: T/C

O=c1[nH]c(=S)n2ncnc2[nH]1
inactive: endpoint: mean survival time, dose: 100.0 mg/kg/injection, schedule: Q01DX009 (ip), vehicle: acetone 97 % of control | endpoint: mean survival time, dose: 200.0 mg/kg/injection, schedule: Q01DX009 (ip), vehicle: acetone 103 % of control | endpoint: mean survival time, dose: 400.0 mg/kg/injection, schedule: Q01DX009 (ip), vehicle: acetone 95 % of control

CCOP(=S)(NCCOC)OCC
inactive: [1] 101 % of control | [2] 101 % of control | [3] 100 % of control

Cc1cc(C)c(N)c(Br)c1C
inactive: [4] 102 % of control | [1] 103 % of control | [5] 97 % of control | [2] 100 % of control | [6] 104 % of control | [3] 101 % of control

NC(=O)N/N=C/c1ccccc1N
inactive: [1] 97 % of control | [2] 108 % of control | [3] 98 % of control

C=C(C)C12OC3(c4ccccc4)OC1C1C4OC4(CO)C(O)C4(O)C(=O)C(C)=CC4C1(O3)C(C)C2OC(=O)c1ccccc1 (centres undefined)
inactive: endpoint: mean survival time, dose: 0.1 mg/kg/injection, schedule: Q01DX009 (ip), vehicle: saline 96 % of control | endpoint: mean survival time, dose: 0.2 mg/kg/injection, schedule: Q01DX009 (ip), vehicle: saline 98 % of control | endpoint: mean survival time, dose: 0.4 mg/kg/injection, schedule: Q01DX009 (ip), vehicle: saline 98 % of control | endpoint: mean survival time, dose: 0.8 mg/kg/injection, schedule: Q01DX009 (ip), vehicle: saline 100 % of control

Cc1c(Cl)cccc1NC(=O)CCl
inactive: [1] 100 % of control | [2] 93 % of control | [3] 90 % of control

Nc1ncnc2c1ncn2CC(N)C(=O)O (centres undefined)
inactive: [7] 103 % of control | endpoint: mean survival time, dose: 200.0 mg/kg/injection, schedule: Q01DX001 (ip), vehicle: saline 107 % of control | endpoint: mean survival time, dose: 400.0 mg/kg/injection, schedule: Q01DX001 (ip), vehicle: saline 105 % of control

O=C(N/N=C\c1ccc(Cl)cc1)C(=O)N/N=C\c1ccc(Cl)cc1
inactive: [8] 106 % of control | [9] 92 % of control | [10] 89 % of control

CC(=O)NNC(=O)c1ccccc1CO
inactive: endpoint: mean survival time, dose: 12.5 mg/kg/injection, schedule: Q01DX009 (ip), vehicle: other 89 % of control | endpoint: mean survival time, dose: 25.0 mg/kg/injection, schedule: Q01DX009 (ip), vehicle: other 90 % of control | endpoint: mean survival time, dose: 50.0 mg/kg/injection, schedule: Q01DX009 (ip), vehicle: other 97 % of control | endpoint: mean survival time, dose: 100.0 mg/kg/injection, schedule: Q01DX009 (ip), vehicle: other 94 % of control | endpoint: mean survival time, dose: 200.0 mg/kg/injection, schedule: Q01DX009 (ip), vehicle: other 101 % of control

O=C(C[n+]1ccccc1)c1ccccc1
inactive: endpoint: mean survival time, dose: 25.0 mg/kg/injection, schedule: Q01DX001 (ip), vehicle: saline 102 % of control | endpoint: mean survival time, dose: 50.0 mg/kg/injection, schedule: Q01DX001 (ip), vehicle: saline 106 % of control | [7] 96 % of control and 97 % of control | endpoint: mean survival time, dose: 100.0 mg/kg/injection, schedule: Q04DX002 (ip), vehicle: saline with Tween-80 96 % of control

N#C/C(=C\c1cccc2ccccc12)c1ccccc1
inactive: [4] 100 % of control | [1] 93 % of control | [5] 96 % of control | [2] 98 % of control | [6] 97 % of control | [3] 102 % of control

C=C1CC2(OC1=O)C(=O)N(C)c1ccc(I)cc12 (centres undefined)
inactive: endpoint: mean survival time, dose: 6.25 mg/kg/injection, schedule: Q01DX009 (ip), vehicle: saline 100 % of control and 104 % of control | endpoint: mean survival time, dose: 12.5 mg/kg/injection, schedule: Q01DX009 (ip), vehicle: saline 100 % of control and 112 % of control | endpoint: mean survival time, dose: 25.0 mg/kg/injection, schedule: Q01DX009 (ip), vehicle: saline 117 % of control and 102 % of control | endpoint: mean survival time, dose: 50.0 mg/kg/injection, schedule: Q01DX009 (ip), vehicle: saline 105 % of control

Cc1csc2nccc(Cl)c12
inactive: [8] 100 % of control | [9] 112 % of control | [10] 97 % of control

C=CCC(c1ccccc1)(c1ccccc1)c1ccccc1
inactive: endpoint: mean survival time, dose: 75.0 mg/kg/injection, schedule: Q01DX001 (ip), vehicle: saline 93 % of control | endpoint: mean survival time, dose: 150.0 mg/kg/injection, schedule: Q01DX001 (ip), vehicle: saline 95 % of control | endpoint: mean survival time, dose: 300.0 mg/kg/injection, schedule: Q01DX001 (ip), vehicle: saline 97 % of control

Cn1c(=O)cc(C(=O)NCCCN2CCOCC2)c2ccccc21
inactive: [1] 92 % of control | [2] 96 % of control | [3] 87 % of control

CCN(c1ccccc1)S(=O)(=O)CS(=O)(=O)N(CC)c1ccccc1
inactive: [11] 104 % of control | [12] 96 % of control | [13] 93 % of control

Nc1nc(-c2cccc([N+](=O)[O-])c2)c(N=Nc2ccccc2)s1
inactive: [8] 95 % of control | [9] 100 % of control

Cc1oc(N)c(C(N)=O)c1C
inactive: endpoint: mean survival time, dose: 100.0 mg/kg/injection, schedule: Q01DX009 (ip), vehicle: saline sonified 103 % of control | [1] 100 % of control | endpoint: mean survival time, dose: 200.0 mg/kg/injection, schedule: Q01DX009 (ip), vehicle: saline sonified 93 % of control | [2] 100 % of control | endpoint: mean survival time, dose: 400.0 mg/kg/injection, schedule: Q01DX009 (ip), vehicle: saline sonified 92 % of control | [3] 94 % of control

O=C1NC(=O)C(=O)N1
inactive: endpoint: mean survival time, dose: 100.0 mg/kg/injection, schedule: Q01DX009 (ip), vehicle: saline 94 % of control | endpoint: mean survival time, dose: 200.0 mg/kg/injection, schedule: Q01DX009 (ip), vehicle: saline 105 % of control | endpoint: mean survival time, dose: 400.0 mg/kg/injection, schedule: Q01DX009 (ip), vehicle: saline 108 % of control

CC1C(=O)C(=O)C(CCc2ccccc2)C1=O (centres undefined)
inactive: [4] 97 % of control | [5] 102 % of control | [6] 109 % of control

CN(C)CCCNC/C=C\CNCCCN(C)C
inactive: endpoint: mean survival time, dose: 100.0 mg/kg/injection, schedule: Q04DX003 (ip), vehicle: saline 101 % of control | endpoint: mean survival time, dose: 200.0 mg/kg/injection, schedule: Q04DX003 (ip), vehicle: saline 101 % of control

O=c1[nH]c2ccccc2c2ccccc2[nH]c(=O)c2ccccc12
inactive: [11] 98 % of control | [12] 102 % of control | [13] 102 % of control

CCCCOB(OCCCC)OCCCC
inactive: [1] 98 % of control | [2] 93 % of control | [3] 103 % of control

CC(=O)O[C@H]1CC[C@@]2(C)C(=CC[C@H]3[C@@H]4CC[C@H](O)[C@@]4(C)CC[C@@H]32)C1
inactive: endpoint: mean survival time, dose: 100.0 mg/kg/injection, schedule: Q01DX009 (ip), vehicle: Klucel (hydroxypropylcellulose) (HPC) 97 % of control | endpoint: mean survival time, dose: 200.0 mg/kg/injection, schedule: Q01DX009 (ip), vehicle: Klucel (hydroxypropylcellulose) (HPC) 90 % of control | endpoint: mean survival time, dose: 400.0 mg/kg/injection, schedule: Q01DX009 (ip), vehicle: Klucel (hydroxypropylcellulose) (HPC) 95 % of control

O=C(NNC(=O)c1cccc(C(=O)NNC(=O)c2ccc(Cl)c(Cl)c2)n1)c1ccc(Cl)c(Cl)c1
inactive: endpoint: median survival time, dose: 43.2 mg/kg/injection, schedule: Q01DX005 (ip), vehicle: Klucel (hydroxypropylcellulose) (HPC) 110 % of control | endpoint: median survival time, dose: 72.0 mg/kg/injection, schedule: Q01DX005 (ip), vehicle: Klucel (hydroxypropylcellulose) (HPC) 115 % of control | endpoint: median survival time, dose: 120.0 mg/kg/injection, schedule: Q01DX005 (ip), vehicle: Klucel (hydroxypropylcellulose) (HPC) 115 % of control and 116 % of control | endpoint: median survival time, dose: 200.0 mg/kg/injection, schedule: Q01DX005 (ip), vehicle: Klucel (hydroxypropylcellulose) (HPC) 120 % of control and 86 % of control | endpoint: median survival time, dose: 333.33 mg/kg/injection, schedule: Q01DX005 (ip), vehicle: Klucel (hydroxypropylcellulose) (HPC) 92 % of control
